Test results published in patent US20250388589A1, “TRICYCLIC HETEROCYCLIC DERIVATIVES, COMPOSITIONS AND USES THEREOF” (Danatlas Pharmaceuticals Co., Ltd., priority 2022, published 2025).

What was measured:
Kuramochi cell line = experiment: Cell Viability Assay (Cell Titer-Glo, 7 days); format: cell-based; conditions: 168 h, Kuramochi cells, 7 days incubation, read-out: PARG Cell viability (IC50)
Outline: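 IC50 from a four-parameter fit of CellTiter-Glo luminescence, scaled between DMSO-treated (high) and medium-only (low) wells. Kuramochi cells (400/well, RPMI/10% FBS) exposed 7 days at 37 °C to 9 concentrations, 3-fold steps, in duplicate.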

[1] = target: hPARG (C-terminal His6-tag) (Homo sapiens (Human), UniProt Q86W56); experiment: PARG Enzymatic Activity Assay (HTRF); format: biochemical; conditions: hPARG 65 pM final, biotinylated-NAD ribosylated PARP1 8 nM final
Chain of hPARG (C-terminal His6-tag) (Q86W56 whole entry): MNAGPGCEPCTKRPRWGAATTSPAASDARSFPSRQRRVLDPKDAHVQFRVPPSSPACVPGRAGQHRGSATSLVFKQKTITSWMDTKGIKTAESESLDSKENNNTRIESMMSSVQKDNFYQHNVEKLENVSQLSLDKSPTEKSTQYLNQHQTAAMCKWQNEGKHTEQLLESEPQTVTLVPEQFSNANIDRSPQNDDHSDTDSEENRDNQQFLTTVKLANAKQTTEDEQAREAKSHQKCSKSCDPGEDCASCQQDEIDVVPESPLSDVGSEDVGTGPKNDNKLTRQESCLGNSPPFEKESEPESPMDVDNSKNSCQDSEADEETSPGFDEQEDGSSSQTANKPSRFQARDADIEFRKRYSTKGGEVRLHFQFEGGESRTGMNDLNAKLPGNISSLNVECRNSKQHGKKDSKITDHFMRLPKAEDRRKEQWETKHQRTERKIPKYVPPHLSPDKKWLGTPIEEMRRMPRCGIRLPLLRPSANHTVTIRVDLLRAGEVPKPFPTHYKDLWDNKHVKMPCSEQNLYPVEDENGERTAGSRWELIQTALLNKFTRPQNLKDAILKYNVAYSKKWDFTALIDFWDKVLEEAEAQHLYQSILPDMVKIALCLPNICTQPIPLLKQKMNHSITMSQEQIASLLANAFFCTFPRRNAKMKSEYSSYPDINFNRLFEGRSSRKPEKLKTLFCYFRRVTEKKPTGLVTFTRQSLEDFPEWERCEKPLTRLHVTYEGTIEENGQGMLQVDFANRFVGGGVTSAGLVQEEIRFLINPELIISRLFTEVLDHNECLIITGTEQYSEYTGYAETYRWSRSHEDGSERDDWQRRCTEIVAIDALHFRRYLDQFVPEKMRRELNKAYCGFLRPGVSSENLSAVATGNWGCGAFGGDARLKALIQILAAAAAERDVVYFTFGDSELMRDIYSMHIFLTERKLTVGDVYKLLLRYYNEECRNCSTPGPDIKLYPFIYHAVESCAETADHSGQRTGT
Outline: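 Readout is time-resolved fluorescence at 620 and 665 nm after 60 min RT detection with streptavidin-Eu cryptate and anti-6HIS-XL665; IC50 by 4-parameter fit, 1% DMSO and no-enzyme controls. Reaction: 8 nM final ribosylated PARP1 substrate for 10 min RT, following 60 min RT enzyme (65 pM)–compound preincubation in Tris pH 7.4 buffer with EDTA, DTT, KCl.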

SMILES	IC50 (Kuramochi cell line) [nM]	IC50 [1] [nM]
CO[C@H]1CCN(C(=O)N2CCC(c3ncnc4c3c3ccc(S(=O)(=O)NC5(C#N)CC5)cc3n4-c3nnc(C(F)F)s3)CC2)C1 [Example 134, (S)—N-(1-Cyanocyclopropyl)-9-(5-(difluoromethyl)-1,3,4-thiadiazol-2-yl)-4-(1-(3-methoxypyrrolidine-1-carbonyl)piperidin-4-yl)-9H-pyrimido[4,5-b]indole-7-sulfonamide]	< 100	< 100
C[C@@H]1CO[C@@H](C)CN1c1ncnc2c1c1ccc(S(=O)(=O)NC3(C#N)CC3)cc1n2-c1nnc(C(F)F)s1 [Example 200, N-(1-Cyanocyclopropyl)-9-(5-(difluoromethyl)-1,3,4-thiadiazol-2-yl)-4-((2S,5R)-2,5-dimethylmorpholino)-9H-pyrimido[4,5-b]indole-7-sulfonamide]	< 100	< 100
CC(C)C(=O)N1CCC(c2ncnc3c2c2cc(F)c(S(=O)(=O)NC4(C)CC4)cc2n3-c2nnc(C(F)F)s2)CC1 [Example 148, 9-(5-(Difluoromethyl)-1,3,4-thiadiazol-2-yl)-6-fluoro-4-(1-isobutyrylpiperidin-4-yl)-N-(1-methylcyclopropyl)-9H-pyrimido[4,5-b]indole-7-sulfonamide]	< 100	< 100
N#CC1(NS(=O)(=O)c2ccc3c4c(C5CCN(C(=O)N6CCOCC6)CC5)ncnc4n(-c4nnc(C(F)F)s4)c3c2)CC1 [Example 140, N-(1-cyanocyclo-propyl)-9-(5-(difluoromethyl)-1,3,4-thiadiazol-2-yl)-4-(1-(morpholine-4-carbonyl)piperidin-4-yl)-9H-pyrimido [4,5-b]indole-7-sulfonamide]	< 100	< 100
N#CC1(NS(=O)(=O)c2ccc3c4c(N5CCC(N6CCC6)[C@@H](F)C5)ncnc4n(-c4nnc(C(F)F)s4)c3c2)CC1 (stereo partly drawn) [Example 208, 4-((3S)-4-(Azetidin-1-yl)-3-fluoropiperidin-1-yl)-N-(1-cyanocyclopropyl)-9-(5-(difluoromethyl)-1,3,4-thiadiazol-2-yl)-9H-pyrimido[4,5-b]indole-7-sulfonamide]	< 100	< 100
CN(C)C(=O)C1CCN(c2ncnc3c2c2ccc(S(=O)(=O)NC4(C#N)CC4)cc2n3-c2nnc(C(F)F)s2)CC1 [Example 179, 1-(7-(N-(1-Cyanocyclopropyl)sulfamoyl)-9-(5-(difluoromethyl)-1,3,4-thiadiazol-2-yl)-9H-pyrimido[4,5-b]indol-4-yl)-N,N-dimethylpiperidine-4-carboxamide]	< 100	< 100
N#CC1(NS(=O)(=O)c2ccc3c4c(N5CCn6c(nnc6C(F)(F)F)C5)ncnc4n(-c4nnc(C(F)F)s4)c3c2)CC1 [Example 156, N-(1-cyanocyclopropyl)-9-(5-(difluoromethyl)-1,3,4-thiadiazol-2-yl)-4-(3-(trifluoromethyl)-5,6-dihydro-[1,2,4]triazolo[4,3-a]pyrazin-7(8H)-yl)-9H-pyrimido[4,5-b]indole-7-sulfonamide]	< 100	< 100
CC1(NS(=O)(=O)c2ccc3c4c(N5CCN6CCOC[C@H]6C5)ncnc4n(-c4nnc(C(F)F)s4)c3c2)CC1 [Example 184, (R)-9-(5-(Difluoromethyl)-1,3,4-thiadiazol-2-yl)-4-(hexahydropyrazino[2,1-c][1,4]oxazin-8(1H)-yl)-N-(1-methylcyclopropyl)-9H-pyrimido[4,5-b]indole-7-sulfonamide]	100 to 1000	< 100
N#CC1CCN(c2ncnc3c2c2ccc(S(=O)(=O)NC4(C#N)CC4)cc2n3-c2nnc(C(F)F)s2)CC1 [Example 49, N-(1-Cyanocyclopropyl)-4-(4-cyanopiperidin-1-yl)-9-(5-(difluoromethyl)-1,3,4-thiadiazol-2-yl)-9H-pyrimido[4,5-b]indole-7-sulfonamide]	< 100	< 100
CO[C@@H]1CCN(C(=O)N2CCC(c3ncnc4c3c3ccc(S(=O)(=O)NC5(C#N)CC5)cc3n4-c3nnc(C(F)F)s3)CC2)C1 [Example 135, (R)-N-(1-Cyanocyclo-propyl)-9-(5-(difluoromethyl)-1,3,4-thiadiazol-2-yl)-4-(1-(3-methoxypyrrolidine-1-carbonyl)piperidin-4-yl)-9H-pyrimido [4,5-b]indole-7-sulfonamide]	< 100	< 100
CC1(NS(=O)(=O)c2ccc3c4c(C5CCNCC5)ncnc4n(-c4nnc(C(F)F)s4)c3c2)CC1 [Example 93, 9-(5-(Difluoromethyl)-1,3,4-thiadiazol-2-yl)-N-(1-methylcyclopropyl)-4-(piperidin-4-yl)-9H-pyrimido[4,5-b]indole-7-sulfonamide]	< 100	< 100
CO[C@H](C)C(=O)N1CCC(c2ncnc3c2c2ccc(S(=O)(=O)NC4(C#N)CC4)cc2n3-c2nnc(C(F)F)s2)CC1 [Example 109, (R)-N-(1-cyanocyclopropyl)-9-(5-(difluoromethyl)-1,3,4-thiadiazol-2-yl)-4-(1-(2-methoxypropanoyl)piperidin-4-yl)-9H-pyrimido[4,5-b]indole-7-sulfonamide]	< 100	< 100
N#CC1(NS(=O)(=O)c2ccc3c4c(C5CCN(C(=O)[C@H]6CCCO6)CC5)ncnc4n(-c4nnc(C(F)F)s4)c3c2)CC1 [Example 110, (R)-N-(1-cyanocyclopropyl)-9-(5-(difluoromethyl)-1,3,4-thiadiazol-2-yl)-4-(1-(tetrahydrofuran-2-carbonyl)piperidin-4-yl)-9H-pyrimido[4,5-b]indole-7-sulfonamide]	< 100	< 100
C[C@@H]1CN(C(=O)N(C)C)[C@@H](C)CN1c1ncnc2c1c1ccc(S(=O)(=O)NC3(C)CC3)cc1n2-c1nnc(C(F)F)s1 [Example 100, (2S,5R)-4-(9-(5-(difluoromethyl)-1,3,4-thiadiazol-2-yl)-7-(N-(1-methylcyclopropyl)sulfamoyl)-9H-pyrimido[4,5-b]indol-4-yl)-N,N,2,5-tetramethylpiperazine-1-carboxamide]	< 100	< 100
CC1(NS(=O)(=O)c2ccc3c4c(C5CCN(C(=O)C(C)(C)O)CC5)ncnc4n(-c4nnc(C(F)F)s4)c3c2)CC1 [Example 94, 9-(5-(Difluoromethyl)-1,3,4-thiadiazol-2-yl)-4-(1-(2-hydroxy-2-methylpropanoyl)piperidin-4-yl)-N-(1-methylcyclopropyl)-9H-pyrimido[4,5-b]indole-7-sulfonamide]	< 100	< 100
N#CC1(NS(=O)(=O)c2ccc3c4c(N5CCN(c6ccccn6)CC5)ncnc4n(-c4nnc(C(F)F)s4)c3c2)CC1 [Example 17, N-(1-Cyanocyclopropyl)-9-(5-(difluoromethyl)-1,3,4-thiadiazol-2-yl)-4-(4-(pyridin-2-yl)piperazin-1-yl)-9H-pyrimido[4,5-b]indole-7-sulfonamide]	100 to 1000	100 to 1000
CCN(C)C(=O)N1CCN(c2ncnc3c2c2ccc(S(=O)(=O)NC4(C#N)CC4)cc2n3-c2nnc(C(F)F)s2)CC1 [Example 7, 4-(7-(N-(1-Cyanocyclopropyl)sulfamoyl)-9-(5-(difluoromethyl)-1,3,4-thiadiazol-2-yl)-9H-pyrimido[4,5-b]indol-4-yl)-N-ethyl-N-methylpiperazine-1-carboxamide]	< 100	< 100
C[C@@H]1CN(c2ncnc3c2c2ccc(S(=O)(=O)NC4(C#N)CC4)cc2n3-c2nnc(C(F)F)s2)CCN1C(=O)C1CCC1 [Example 5, (R)-N-(1-Cyanocyclopropyl)-4-(4-(cyclobutanecarbonyl)-3-methylpiperazin-1-yl)-9-(5-(difluoromethyl)-1,3,4-thiadiazol-2-yl)-9H-pyrimido[4,5-b]indole-7-sulfonamide]	100 to 1000	< 100
N#CC1(NS(=O)(=O)c2ccc3c4c(N5CC6CCC(C5)O6)ncnc4n(-c4nnc(C(F)F)s4)c3c2)CC1 [Example 201, 4-(8-Oxa-3-azabicyclo[3.2.1]octan-3-yl)-N-(1-cyanocyclopropyl)-9-(5-(difluoromethyl)-1,3,4-thiadiazol-2-yl)-9H-pyrimido[4,5-b]indole-7-sulfonamide]	< 100	< 100
Cn1ccnc1N1CCN(c2ncnc3c2c2ccc(S(=O)(=O)NC4(C#N)CC4)cc2n3-c2nnc(C(F)F)s2)CC1 [Example 22, N-(1-Cyanocyclopropyl)-9-(5-(difluoromethyl)-1,3,4-thiadiazol-2-yl)-4-(4-(1-methyl-JH-imidazol-2-yl)piperazin-1-yl)-9H-pyrimido[4,5-b]indole-7-sulfonamide]	100 to 1000	< 100
N#CC1(NS(=O)(=O)c2ccc3c4c(N5CCC(F)(F)CC5)ncnc4n(-c4nnc(C(F)F)s4)c3c2)CC1 [Example 52, N-(1-Cyanocyclopropyl)-9-(5-(difluoromethyl)-1,3,4-thiadiazol-2-yl)-4-(4,4-difluoropiperidin-1-yl)-9H-pyrimido[4,5-b]indole-7-sulfonamide]	100 to 1000	100 to 1000
C[C@H]1CN(c2ncnc3c2c2ccc(S(=O)(=O)NC4(C#N)CC4)cc2n3-c2nnc(C(F)F)s2)CCN1CC(F)(F)F [Example 159, (S)-N-(1-cyanocyclopropyl)-9-(5-(difluoromethyl)-1,3,4-thiadiazol-2-yl)-4-(3-methyl-4-(2,2,2-trifluoroethyl)piperazin-1-yl)-9H-pyrimido[4,5-b]indole-7-sulfonamide]	100 to 1000	< 100
